We go through 30 compounds from US11401236B2, “Resorcinol derivatives for their cosmetic use” (L'OREAL, priority 2017, dated 2022).

pIC50: −log10 of the molar value. Values joined by “and” are separate entries in the source; they are usually repeats but may differ in a detail not shown here. Identical values can stand only once. Like-named read-outs stand apart in the source and are kept apart here.

For one data set, the system named is normal human melanocytes. Briefly: Depigmenting activity: reduction of melanin production in normal human melanocytes in vitro. The class given is cell-based. The following applies: Melanocyte. How it is done: The measurement of the depigmenting activity (reduction of melanin production) of compounds of formula (I) was performed by assaying normal human melanocytes in vitro as follows.
First of all, normal human melanocytes were cultured and dispensed into 384 wells. After 24 hours, the culture medium was replaced with a medium containing compounds of formula (I) to be evaluated. The cells were incubated for 72 hours before measurement of the final optical density, which measures the amount of melanin produced by the melanocytes. A dose effect was performed using a wide concentration range of the compounds evaluated. Thus, by making the concentrations and the measurements of melanin correspond, it is possible to determine an IC50 in μM: concentration at which 50% decrease in melanin synthesis is achieved.

The test system of data set [1] is coculture of keratinocytes and melanocytes. Briefly: Modulatory effect on melanogenesis and cytotoxicity in a coculture of keratinocytes and melanocytes. The format is cell-based. Conditions: for pIC50: melanin optical density, read-out: IC50 (concentration for which 50% of the melanin synthesis is inhibited). As to the method: The modulatory effect on melanogenesis of each compound was measured according to the method described in the patent FR-A-2734825, and also in the article by R. Schmidt, P. Krien and M. Régnier, Anal. Biochem., 235(2), 113-18, 1996. This test is carried out on a coculture of keratinocytes and melanocytes. For the compounds tested, the following were determined: • the cytotoxicity, • the inhibitory activity on melanin synthesis, by estimating the melanin optical density, • the IC50 values (concentration for which 50% of the melanin synthesis is inhibited).

The subject of data set [2] is pigmented reconstructed epidermis. Briefly: Experiment on pigmented reconstructed epidermis (melanin versus solvent). The class given is cell-based. The text has this:
Experiment on pigmented reconstructed epidermis

Data set [3] in a line: Stability of the compound (statement in the synthesis example). The class given is physicochemical. Conditions: no conditions given.
Where [4] appears, read: Homo sapiens, 72 h, Table 3 test campaign, normal human melanocytes, 72 hours incubation, 50% decrease in melanin synthesis, maximum concentration tested 200 μM, read-out: IC50.
[5] abbreviates: Table 2 test campaign, normal human melanocytes, 72 hours incubation, concentration at which 50% decrease in melanin synthesis is achieved, maximum concentration tested 200 μM, read-out: IC50.
[6] abbreviates: Homo sapiens, prior-art comparison compounds, compared with the Table 2 results, melanin synthesis in normal human melanocytes, read-out: IC50 value.

Take `CC(CCC(=O)N(C)CC(=O)O)c1ccc(O)cc1O` (centres unmarked) [Compound 28, N-[4-(2,4-dihydroxyphenyl)pentanoyl]-N-methylglycine]: in the data set with normal human melanocytes (setting [4]), the pIC50 was 4.51.

For the compound `CC(CCC(=O)NCCc1ccc(O)cc1)c1ccc(O)cc1O` (centres unmarked) [Compound 8, 4-(2,4-dihydroxyphenyl)-N-[2-(4-hydroxyphenyl)ethyl]pentanamide], the pIC50 in the data set with normal human melanocytes (setting [5]) was 6.41.

A word on the melting point: it is the temperature of the solid-liquid transition. In the case of `CC(CCC(N)=O)c1ccc(O)cc1O` (centres unmarked) [Compound 10, 4-(2,4-dihydroxyphenyl)pentanamide], the melting point is 54 to 56 °C. In addition, in the data set with normal human melanocytes (setting [5]), the pIC50 was 5.97.

`CCNC(=O)CCC(C)c1ccc(OC(C)=O)cc1OC(C)=O` (centres unmarked) [Compound 11, 4-[5-(ethylamino)-5-oxopentan-2-yl]benzene-1,3-diyl diacetate]: in the data set with normal human melanocytes (setting [5]), the pIC50 is 6.03.

For the compound `CCOC(=O)C(C)NC(=O)CCC(C)c1ccc(O)cc1O` (racemic) [Compound 17, ethyl N-[4-(2,4-dihydroxyphenyl)pentanoyl]-DL-alaninate], the cytotoxicity entry in data set [1] is listed as “non-cytotoxic”. For the same compound, the pIC50 is 6.92 in data set [1] and 6.41 in the data set with normal human melanocytes (setting [4]).

Turning to `CCCCc1ccc(O)cc1O` [Lucinol, 4-n-butyl resorcinol, reference compound], the “Comparison of melanin with respect to the solvent (DMSO)” value in data set [2] (effective concentration 500 μM) is listed as −25%. In data set [1], the pIC50 is 6.10.

For the compound `CCCCNC(=O)CCC(C)c1ccc(O)cc1O` (centres unmarked) [Compound 4, N-butyl-4-(2,4-dihydroxyphenyl)pentanamide], the pIC50 in the data set with normal human melanocytes (setting [5]) is 6.16.

In the case of `CC(CCC(=O)O)c1ccc(O)cc1O` (centres unmarked) [Compound 1, 4-(2,4-dihydroxyphenyl)pentanoic Acid], the “stability of the compound” value in data set [3] is “stable”. Besides, the pIC50 in the data set on normal human melanocytes (setting [5]) was 5.32.

Take `CC(CCC(=O)N1CCOCC1)c1ccc(O)cc1O` (centres unmarked) [Compound 29, 4-(2,4-dihydroxyphenyl)-1-(morpholin-4-yl)pentan-1-one]: the pIC50 with normal human melanocytes (setting [4]) is 5.74; with normal human melanocytes (setting [5]) it was 5.53.

In the case of `CNC(=O)/C=C/c1ccc(O)cc1O` [(A), reference compound], the pIC50 in the data set with normal human melanocytes (setting [6]) is 5.41.

With `CC(CCC(=O)NCCO)c1ccc(O)cc1O` (centres unmarked) [Compound 9, 4-(2,4-dihydroxyphenyl)-N-(2-hydroxyethyl)pentanamide], in the data set with normal human melanocytes (setting [5]), the pIC50 was 6.20.

`CCOC(=O)CN(C)C(=O)CCC(C)c1ccc(O)cc1O` (centres unmarked) [Compound 27, ethyl N-[4-(2,4-dihydroxyphenyl)pentanoyl]-N-methylglycinate]: the pIC50 in the data set with normal human melanocytes (setting [4]) was 4.29.

Consider `COC(=O)CC(C)c1ccc(O)cc1O` (centres unmarked) [(B), reference compound], for which, in the data set with normal human melanocytes (setting [6]), the pIC50 was 5.30.

Turning to `CCOC(=O)CCC(C)c1ccc(O)cc1O` (centres unmarked) [Compound 30, ethyl 4-(2,4-dihydroxyphenyl)pentanoate], in the data set with normal human melanocytes (setting [5]), the pIC50 is 6.00.

For the compound `CCOC(=O)[C@H](Cc1ccccc1)NC(=O)CCC(C)c1ccc(O)cc1O` (some centres unmarked) [Compound 22, ethyl N-[4-(2,4-dihydroxyphenyl)pentanoyl]phenylalaninate], the melting point lay within 51 to 59 °C. Also, in the data set with normal human melanocytes (setting [4]), the pIC50 was 5.08.

For `CC(CCC(=O)NCC1CCCCC1)c1ccc(O)cc1O` (centres unmarked) [Compound 7, N-(cyclohexylmethyl)-4-(2,4-dihydroxyphenyl)pentanamide], in the data set on normal human melanocytes (setting [5]), the pIC50 was 6.40.

Consider `CCN(CC)C(=O)CCC(C)c1ccc(O)cc1O` (centres unmarked) [Compound 24, 4-(2,4-dihydroxyphenyl)-N,N-diethylpentanamide], for which the pIC50 in the data set with normal human melanocytes (setting [5]) was 5.99.

Compound `COC(=O)[C@H](CC(C)C)NC(=O)CCC(C)c1ccc(O)cc1O` (some centres unmarked) [Compound 20, methyl N-[4-(2,4-dihydroxyphenyl)pentanoyl]leucinate] returned a melting point of 63 °C. The pIC50 in the data set on normal human melanocytes (setting [4]) was 5.92. In addition, the pIC50 in the data set with normal human melanocytes (setting [5]) was 5.80.

In turn, `CC(CCC(=O)NC1CCCCC1)c1ccc(O)cc1O` (centres unmarked) [Compound 6, N-cyclohexyl-4-(2,4-dihydroxyphenyl)pentanamide] showed a melting point of 75 to 78 °C. Also, in data set [1], the cytotoxicity result is given as “non-cytotoxic” and the pIC50 was 6.85. Further, the pIC50 in the data set on normal human melanocytes (setting [4]) was 6.41. Also, the pIC50 in the data set on normal human melanocytes (setting [5]) was 6.25.

For `CC(CCC(=O)OCCCNC(=O)C1OC(C)(C)OCC1(C)C)c1ccc(O)cc1O` (centres unmarked) [Compound 34, 3-{[(2,2,5,5-tetramethyl-1,3-dioxan-4-yl)carbonyl]amino}propyl 4-(2,4-dihydroxyphenyl)pentanoate], in the data set with normal human melanocytes (setting [5]), the pIC50 was 5.53.

In turn, `CC(CCC(=O)N[C@H](C)C(=O)O)c1ccc(O)cc1O` (stereo partly drawn) [Compound 18, N-[4-(2,4-dihydroxyphenyl)pentanoyl]-D-alanine] showed a melting point of 65 to 68 °C. The pIC50 in the data set on normal human melanocytes (setting [5]) was 5.79.

On to `CC(C)NC(=O)CCC(C)c1ccc(O)cc1O` (centres unmarked) [Compound 3, 4-(2,4-dihydroxyphenyl)-N-(propan-2-yl)pentanamide], for which the melting point is 60 to 65 °C and 56 °C. Besides, in the data set with normal human melanocytes (setting [5]), the pIC50 is 6.21.

The compound `COCCN(CCOC)C(=O)CCC(C)c1ccc(O)cc1O` (centres unmarked) [Compound 25, 4-(2,4-dihydroxyphenyl)-N,N-bis(2-methoxyethyl)pentanamide] returned a melting point of 78 to 81 °C. For the same compound, the pIC50 in the data set with normal human melanocytes (setting [4]) was 5.28.

In the case of `CCNC(=O)CCC(C)c1ccc(O)cc1O` (centres unmarked) [Compound 2, 4-(2,4-dihydroxyphenyl)-N-ethylpentanamide], the depigmenting efficiency entry in data set [2] (comparison with lucinol) was “greater than lucinol”. In addition, the “Comparison of melanin with respect to the solvent (DMSO)” value in data set [2] (effective concentration 50 μM) is reported as −26%. Further, the pIC50 in the data set with normal human melanocytes (setting [5]) is 6.08.

As to `CCOC(=O)[C@H](C)NC(=O)CCC(C)c1ccc(O)cc1O` (stereo partly drawn) [Compound 15, ethyl N-[4-(2,4-dihydroxyphenyl)pentanoyl]-L-alaninate], the melting point is 48 to 50 °C. The pIC50 with normal human melanocytes (setting [5]) was 5.97.

Regarding `CC(CCC(=O)OC[C@@H](O)[C@H](O)[C@@H](O)CO)c1ccc(O)cc1O` (stereo partly drawn) [Compound 32, 5-O-[4-(2,4-dihydroxyphenyl)pentanoyl]-D-xylitol], the pIC50 with normal human melanocytes (setting [5]) was 5.52.

Take `CC(CCC(=O)NCC(=O)O)c1ccc(O)cc1O` (centres unmarked) [Compound 14, N-[4-(2,4-dihydroxyphenyl)pentanoyl]glycine]: the melting point is 59 to 65 °C. The pIC50 with normal human melanocytes (setting [4]) was 4.73.

With `CCN(CCO)C(=O)CCC(C)c1ccc(O)cc1O` (centres unmarked) [Compound 26, 4-(2,4-dihydroxyphenyl)-N-ethyl-N-(2-hydroxyethyl)pentanamide], the cytotoxicity entry in data set [1] was “non-cytotoxic”. The pIC50 in data set [1] is 6.35; in the data set on normal human melanocytes (setting [5]) it was 5.71.

Take `O=C(O)CCc1ccc(O)cc1O` [(C), reference compound]: the pIC50 in the data set on normal human melanocytes (setting [6]) is 4.20.

For `CCC(C)NC(=O)CCC(C)c1ccc(O)cc1O` (centres unmarked) [Compound 5, N-(butan-2-yl)-4-(2,4-dihydroxyphenyl)pentanamide], the pIC50 is 6.41 in the data set with normal human melanocytes (setting [4]) and 6.35 in the data set with normal human melanocytes (setting [5]).
